The values that follow come from patent US12318399B2 (priority 2022, dated 2025).

SMILES strings stand for the structures. Like-named read-outs stand apart in the source and are kept apart here.

Series [1] deals with endometrial cancer organoids. The series can be described thus: Patient-derived endometrial cancer organoid cell viability (CellTiter-Glo). The class given is cell-based, human. The settings on record: for Endometrial Cancer Average: vehicle = 100. Here is the method: (§1) Development of patient derived organoids: The patient derived organoids were created as follows: the patient's tissue sample was collected after surgery and bathed in Hank's Balanced Salt Solution (HBSS) (Hyclone, SH30031.02) with 1% Pencillin/Streptomycin (P/S) (Life Technologies, 15070-063) on ice. Then the sample was washed three times with Dulbecco's phosphate-buffered saline (DPBS) and 1% P/S on a shaker (70 rpm) for 15 minutes each. The tissue was then transferred into a presterilized cell-culture hood to mince it finely with a sterile blade. All minced parts were then digested in an enzyme named Accumax (Innovative Cell Technologies Inc., AM105-500) for 2.5 hours at room temperature. After 2.5-hour incubation, the whole digested tissue mince was transferred in another enzyme, TrypLE express, (Gibco, 12604-021) for another 45 minutes in a 37° C. water bath. During this time the solution was continuously agitated in every 5 minutes interval. After 45 minutes of incubation, the solutions were passed through 70 μm filter on a 50 mL falcon tube. The filter was removed, and the flowthrough with the cells was collected in 5% FBS AD+++ medium (comprising 1% TS, 2% B27, 1% N2, 25% WRN, hegf 50 ng/ml, hfgf 10-100 ng/ml, Nicotinamide 1 mM, N-acetyl cysteine 1.25 mM, Primocin 0.2%, Estrogen 2 nm, A8301 0.5 μM, and Y27632). This cell suspension was centrifuged at 1000 rpm for 5 minutes at room temperature to get the cell pellet for counting. Upon checking under hemocytometer cell number was calculated and processed for organoid culture. After checking under a microscope if we found RBC contamination in the final cell suspension, then we used Red Blood Cell Lysis Buffer (Roche Diagnostics, 11814389001) to get rid of the excess RBC. Human patient cells from endometrial cancer were grown and maintained in a humidified chamber at 37° C. with 5% CO2.
(§2) To culture patient-derived organoids, 2-3×10^3 cells were plated in a prewarmed (37° C.) 96-well plate in […] of Matrigel (5% FBS AD+++ medium) per well. Individual patient cell organoid was cultured separately in different plates. Individual patient cells were handled separately to reduce the chance of cross-contamination. After mixing cells with Matrigel, […] droplets were placed in wells and put in a 37° C. incubator with 5% CO2 for 30 minutes. Upon solidification of the Matrigel droplet with cells inside, the plate was placed inside a sterile hood and immersed the Matrigel droplet in 200 μL of organoid growth media. Cells were allowed to grow into mature organoids for 14 days. […] All treatments were done in triplicate, including vehicle-only controls (Dimethyl sulfoxide in culture medium at the highest concentration used for drug treatments).
(§3) Note: IC50 is the 50% inhibitory concentration which is conventionally used to determine drug potency with cell-based cytotoxicity tests. Similarly, all of the antioxidants were tested under the same protocol.
(§4) To assess the cell viability in organoids after treatments, CellTiter-Glo® Luminescent Assay (Promega #G7572) was used. In brief, on day 14 of organoid culture, the matrigel droplet in each well with organoid inside was immersed in 100 μL of fresh growth media and 100 μL of CellTiter-Glo® reagent following the manufacturer's guideline. Blank wells containing only media and CellTiter-Glo® reagent (no cells) were also included in each plate. Then the plates were put on a shaker at 110 RPM at room temperature for […] minutes to induce cell lysis, followed by 25 minutes at room temperature to stabilize the luminescent signal. Each step after adding the CellTiter-Glo® reagent was performed in the dark. Luminescence was measured on a FLUOstar OPTIMA plate reader (BMG Lab technologies, Offenburg, Germany). Analysis was performed by normalizing treatment values to the vehicle control and plotting them as a percentage of the vehicle control.
For orientation: ATP-based viability assays read luminescence as a measure of living cells.

The test system of series [2] is ovarian cancer organoids. The series can be described thus: Patient-derived ovarian cancer organoid cell viability. In kind it is cell-based, human. The conditions noted are these: for Ovarian Cancer Average: vehicle = 100; for cell viability: chemo sensitive and chemo resistant organoids, FIGS. 11A-11D. Here is the method:
as §1
For the Ascites samples, we centrifuged the ascites fluid at 1000 rpm for 10 minutes at room temperature to get the cell suspension. The cell suspension was then treated with Red Blood Cell Lysis Buffer (Roche Diagnostics, 11814389001) to remove the RBC from the final cell suspension. Once samples were created, they were ready for testing, which included treating the organoids with cannabis extract. Additional cells were cultured in the same manner as above.
as §2, §3
To assess the cell viability in organoids after treatments, CellTiter-Glo® Luminescent Assay (Promega #G7572) was used. In brief, on day 14 of organoid culture, the matrigel droplet in each well with organoid inside was immersed in 100 μL of fresh growth media and 100 μL of CellTiter-Glo® reagent following the manufacturer's guideline. Blank wells containing only media and CellTiter-Glo® reagent (no cells) were also included in each plate. […]

For series [3], the system named is endometriosis organoids. The experiment in a line: Endometriosis organoid cell viability. The conditions noted are these: vehicle = 100. The class given is cell-based, human. Also on record: key: % of vehicle control. Here is the method: as §2, §3
as §4, with “control. Drug IC50 values were determined by inhibitor vs normalized response-variable slope using least squares regression in Graphpad Prism 9.” for “control.”

Series [4] relates to patient derived endometrial cancer cells. The series can be described thus: Patient-derived xenograft (PDX) mouse model, tumor volume. In kind it is in vivo. The conditions noted are these: monotherapy 30 mg/kg intraperitoneal, by day 14 and at day 21. Here is the method:
Human patient cells from endometrial cancer were injected subcutaneously into female NOD/SCID gamma mice after resuspending in 100 μL solution. […] Tumor size measured before treatment, followed by twice a week measurement. All treatment group mice were kept alive for up to 10 weeks after drug injection or until the tumor volume grows bigger than 2,500 mm^3.
Tumor size was measured along with body weight at the time of tissue collection. All tumor tissues were removed carefully from the euthanized mouse body. Tumor tissue samples were kept for histology, proteomics, genomics, and other downstream processing. All downstream processing was completed following NCI Patient-Derived Models Repository SOPs. Tumor volume graph will be plotted using GraphPad Prism 9.
The mouse studies utilized intraperitoneal dosing of various formulations of cannabis extracts comprising a known quantity of CBD.
In general terms: Xenograft models place foreign cells or tissue in a host animal.

For series [5] the following is noted: cited from earlier work.
Series [6] relates to chemoresistant EC, which had metastasized. The experiment in a line: Testing within human patients. In kind it is in vivo.

For `O=c1c(O)c(-c2cc(O)c(O)c(O)c2)oc2cc(O)cc(O)c12` [myricetin], the “reduction from its monotherapy” value in series [1] (10 μM, with IC50 of BSHE) is reported as approximately 86%. Moreover, the “Endometrial Cancer Average” value in series [1] (Table 4, 10 μM) is 85.01; in series [1] (Table 4, 25 μM), 54.50; in series [1] (Table 4, 50 μM), 15.11; in series [1] (Table 4, 75 μM), 4.98; in series [1] (Table 4, 100 μM), 0.00; in series [1] (Table 4, 125 μM) it was 0.00. Besides, the “Endometrial Cancer Average” value worked out at 0.00 in series [1] (Table 4, 150 μM); 0.00 in series [1] (Table 4, 175 μM); 0.00 in series [1] (Table 4, 200 μM). In addition, the “cell viability as a monotherapy” value in series [1] (monotherapy, FIG. 16) is “significantly reduced cell viability”. The “Ovarian Cancer Average” value in series [2] (25 μM) worked out at 88.60; in series [2] (50 μM), 84.68; in series [2] (75 μM), 78.36; in series [2] (100 μM), 38.95; in series [2] (125 μM), 13.49; in series [2] (150 μM) it was 2.97. Further, the “Ovarian Cancer Average” value in series [2] (175 μM) and in series [2] (200 μM) was 0.00 throughout. Also, the “Endometriosis Average” value was 92.10 in series [3] (25 μM); 91.37 in series [3] (50 μM); 73.66 in series [3] (75 μM); 18.33 in series [3] (100 μM); 2.85 in series [3] (125 μM); 0.00 in series [3] (150 μM). The “Endometriosis Average” value in series [3] (175 μM) and in series [3] (200 μM) was 0.00 in each case.
As for `C=C(C)[C@@H]1CCC(C)=C[C@H]1c1c(O)cc(CCCCC)cc1O` [CBD isolate, cannabidiol], in series [1] (7 or 10 μg/mL, FIGS. 4B and 4C), the “response of patient derived organoids” value is reported as “virtually all patients respond”. In addition, the eradication in series [1] (IC50 of cannabis extract combined with the higher doses of carboplatin) is listed as approximately 100%. The cell viability result in series [2] is “dramatically reduce cell viability”. For the same molecule, the “efficacy at killing the organoids compared with native pH” value in series [2] (pH 8) is on record as “virtually no change”. Besides, the tumor volumes entry in series [4] is recorded as “decreased”.
Consider `CCCCCc1cc(O)c2c(c1)OC(C)(C)[C@@H]1CCC(C)=C[C@@H]21` [THC, Δ-9-tetrahydrocannabinol], for which the “onset to reach peak concentration” value in series [5] (oral formulations) is approximately 120 min.
Consider `C=C(C)[C@@H]1CCC(C)=C[C@H]1c1c(O)cc(CCCCC)cc1O` [CBD, cannabidiol], for which the “efficacy in human patients” value in series [6] is “effective in reducing chemoresistant EC”. In addition, the “increase of Cmax” value in series [5] (coadministration with high fat food) is reported as “up to 5 fold”. For the same molecule, the Tmax entry in series [5] (delivery via the nasal mucosa) is “approximately 10 minutes”. For the same molecule, the entries for the “maximum plasma concentration (time)” value in series [5] (oral-mucosal or sublingual delivery) and in series [5] (orally delivered) were 1.6 h and 2.5 to 5 h, respectively.
For `C=C(C)[C@@H]1CCC(C)=C[C@H]1c1c(O)cc(CCCCC)c(C(=O)O)c1O` [CBDA, cannabidiolic acid], the “reduction in organoid formation in all patients” value in series [1] (dosing up to 50 μg/mL) was approximately 100%. For the same molecule, the cell viability result in series [2] was “dramatically reduce cell viability”. The tumor volumes entry in series [4] is on record as “decreased”.
